Test results published in doi:10.1101/427617v2 (bioRxiv, 2019).

Legend:
dural lymphatic cells [1] = test: pHrodo-dextran uptake, live cell imaging; assay type: cell-based, rat; conditions: 10kD pHrodo-dextran, Dyngo4a at 100-200μM, Fig. 12B, 12D
dural lymphatic cells [2] = test: transferrin-AlexaFluor647 uptake, live cell imaging; assay type: cell-based, rat

| Compound | Effect of inhibitor on pHrodo dextran uptake (dural lymphatic cells [1]) | Uptake of labeled transferrin by lymphatic cells (dural lymphatic cells [2]) | Effect of inhibitor on transferrin-AlexaFluor647 uptake (dural lymphatic cells [2]; same concentration (100-200μM), Fig. 12C) |
| --- | --- | --- | --- |
| CCCCC[C@@H](O)[C@H]1C(=O)O[C@H](C)[C@@H](O)/C=C/C=C/C=C/C=C/C=C(\C)[C@@H](O)C[C@H](O)C[C@H](O)C[C@H](O)C[C@H](O)C[C@H](O)C[C@@H]1O [filipin] | blocked uptake | – | – |
| transferrin-AlexaFluor647: labeled transferrin used to test clathrin-dependent endocytosis | – | avidly took up | – |
| O=C(N/N=C/c1cc(O)c(O)cc1O)c1cc2ccccc2cc1O [Dyngo4a] | blocked in dose dependent fashion | – | specifically blocked |
